“Also recorded” adds a separate entry of the source.
Legend:
β-adrenergic receptors = assay: Modulation of the activity of β-adrenergic receptors (isoproterenol-induced cAMP synthesis in C6 glioma); assay type: cell-based; settings: rat C6 glioma, cAMP synthesis induced by 5 μM (−) isoproterenol, 30 min, simultaneous addition
Procedure: Mechanism of action of novel compounds is presented on FIG. 2. […] Incubation was at 37° C. in a humidified atmosphere. Assays were performed in the logaritmic growth phase at a density of 2.5×10^5 cells/cm^2. Intracellular cAMP synthesis was induced by addition of 5 μM (−) isoproterenol. After 30 min incubation at 37° C. the medium was removed and the cellular amount of cAMP determined using the cAMP-enzyme immunoassay kit of Amersham. The I50 is determined from a dose-response curve in duplicate. The effect of several novel substituted 6-(2-hydroxybenzylamino)purine derivatives was measured after simultaneous addition with isoproterenol.
As P2Y1-like and A2 purinergic receptors, negatively and positively coupled to adenylate cyclase respectively, are present on rat C6 glioma. It has to be determined if the modulation of the synthesis of cAMP is due to inhibition of the activation of β-adrenergic receptors by isoproterenol are due to activation of purinergic receptors.

[1] = tested on: C-terminal domain of RNA polymerase II (serine 2 and serine 5 phosphorylation); assay: Immunoblotting of RNA polymerase II CTD phosphorylation (CDK9 activity in cells), MCF-7; assay type: cell-based, human; settings: MCF-7 cells
Procedure: Effect of compounds on CDK9 activity in cells was monitored by site-specific phosphorylations of C-terminal domain of RNA polymerase II, a substrate of CDK9, by means of immunoblotting. For immunoblotting, cell were detached with rubber policeman and washed three times with ice-cold PBS and lysed in buffer (50 mM Tris, pH 7.4, 250 mM NaCl, 5 mM EDTA, 50 mM NaF, 1 mM Na3VO4, 1% Nonidet P40) containing mixture of protease and phosphatase inhibitors (Sigma-Aldrich, USA). 20 μg of total proteins were separated by SDS-polyacrylamide gel electrophoresis (SDS-PAGE) and transferred onto nitrocellulose membranes. Membranes were blocked in 5% milk and 0.1% Tween 20 in PBS and probed overnight with specific monoclonal antibodies or rabbit polyclonal sera. Primary antibodies specific for RNA polymerase II (all from Santa Cruz Biotechnology, California, USA) included: (i) N-20 used at 1 μg/ml, (ii) H14, specific for form phosphorylated at phosphoserine 5, used at 6 μg/ml and (iii) H5, specific for form phosphorylated at phosphoserine 2 used at 4 μg/ml. […] All primary antibodies were diluted in PBS containing 5% powdered milk; 0.1% Tween 20. Peroxidase conjugated rabbit anti-mouse immunoglobulin or porcine anti-rabbit immunoglobulin antisera (DAKO, Denmark) were used as the secondary antibodies and visualised with ECL reagents (Amersham-Pharmacia, Little Chalfont, UK). […]

p53 = assay: p53-dependent transcription, β-galactosidase reporter in Arn8 cells; assay type: cell-based, human; design: key to p53 (effect): induction of p53 protein: ++: very strong; +: weak; −: no effect
Text: Protein p53, accumulated in nuclei upon treatment by the compounds, then leads to trans-activation of natural cell cycle inhibitor p21^WAF1, further blocking the cell cycle. […] This allows qualitative as well as quantitative measurement of CDK inhibitors-induced p53 transcriptional activity via β-galactosidase assay. Then, the effect will be verified in treated cells by immunoblotting of proteins expressed under the control of p53. β-galactosidase activity of human melanoma cell line Arn8 was determined as described. […] Alternatively, β-galactosidase activity was quantified by measuring fluorescence of methylumbelliferyl-β-D-galactopyranoside cleavage product. Cell lines established from the human breast carcinoma (MCF-7) and the human melanoma (Arn8) cell lines were cultured in Dubecco's Modified Eagle Medium (DMEM) supplemented with 10% foetal bovine serum.
Effects of prepared compounds on activation of p53 protein were analysed in human melanoma cell line Arn8. […] The total β-galactosidase activity in Arn8 cells was quantified using a fluorimetric assay.

[2] = tested on: p53, p21^WAF1, Mcl-1 in MCF-7 cells; assay: Immunoblotting of p53, p21WAF1 and Mcl-1 in MCF-7 cells; assay type: cell-based, human; settings: MCF7, 24 h, concentration dependent, immunoblotting
Procedure: (§1) For immunoblotting, cell were detached with rubber policeman and washed three times with ice-cold PBS and lysed in buffer (50 mM Tris, pH 7.4, 250 mM NaCl, 5 mM EDTA, 50 mM NaF, 1 mM Na3VO4, 1% Nonidet P40) containing mixture of protease and phosphatase inhibitors (Sigma-Aldrich, USA). 20 μg of total proteins were separated by SDS-polyacrylamide gel electrophoresis (SDS-PAGE) and transferred onto nitrocellulose membranes. Membranes were blocked in 5% milk and 0.1% Tween 20 in PBS and probed overnight with specific monoclonal antibodies or rabbit polyclonal sera. Primary antibodies specific for p53 (DO-1, in house), p21^WAF1 (118, in house), PARP-1 (2C10, Sigma-Aldrich St Louis, Mo., USA), Mcl-1 (S-19, Santa Cruz, USA), all used at 1 μg/ml. All primary antibodies were diluted in PBS containing 5% powdered milk; 0.1% Tween 20. Peroxidase conjugated rabbit anti-mouse immunoglobulin or porcine anti-rabbit immunoglobulin antisera (DAKO, Denmark) were used as the secondary antibodies and visualised with ECL reagents (Amersham-Pharmacia, Little Chalfont, UK).
The induction of p53 protein was apparent in 4 hrs but enhanced level of p21^WAF1 protein was observed only 12 hours after treatment with compound 128 (FIG. 5). The periods of time 12 and 24 hrs were chosen, since the level of protein expression reached a steady state.

p53 in RPMI-8226 cells = assay: Immunoblotting in RPMI-8226 cells with temperature-sensitive p53 (E285K) at permissive and restrictive temperature; assay type: cell-based, human; settings: RPMI-8226 cells, 30° C. versus restrictive temperature
Procedure: as §1, with “Primary antibodies specific for p53 (DO-1, in house), p21^WAF1 (118, in house), PARP-1 (2C10, Sigma-Aldrich St Louis, Mo., USA), Mcl-1 (S-19, Santa Cruz, USA), all used at 1 μg/ml.” left out
Then, we also determined effect of the compounds on the cell lines expressing some temperature-sensitive mutants of p53. For example, in BT474 and RPMI-8226 cells bearing temperature-sensitive mutant of p53 (E285K), p53 protein switches between mutant and wild-type conformation in a temperature-dependent manner. At restrictive (37° C.) temperature mutated p53 protein is expressed, while after shift to a permissive (30° C.) temperature p53 is folded correctly and functional. To analyze the functional involvement of p53 in the efficiency of the treatment with the compounds, we cultivated RPMI-8226 cells independently at two different temperatures (restrictive or permissive), and exposed them to increasing doses of selected compounds. The cell lysates were prepared and the levels of cell cycle regulators were analysed by immunoblotting.

CC[C@H](CO)Nc1nc(NCc2ccccc2)c2ncn(C(C)C)c2n1 [ROSC, roscovitine, reference compound]
EFFECT (modulation of the activity of β-adrenergic receptors) (β-adrenergic receptors): inactive
levels of serine 2 and serine 5 phosphorylation of RNA polymerase II CTD [1]: substantially reduced; also recorded: is inhibited
p53 (effect): induction of p53 protein (p53; Arn8 cells stable transfected with a β-galactosidase reporter gene): ++
activation of p53-dependent transcription (p53; Arn8 reporter cell line, β-galactosidase reporter activity): proved to activate p53-dependent transcription
expression of p53, p21^Waf1 and Mcl-1 [2]: accumulation of tumor suppressor protein p53, expression of p53-regulated CDK inhibitor p21^Waf1 and downregulation of antiapoptotic protein Mcl-1
expression of anti-apoptotic protein Mcl-1 (p53 in RPMI-8226 cells): suppressed more efficiently at 30 °C

— patent publication US8492391B2, “Substituted 6-(2-hydroxybenzylamino)purine derivatives, their use as medicaments and compositions containing these derivatives” (Univerzita Palackeho V Olomouci, priority 2009, dated 2013)
